Where two headings read alike, the source gives them in different places. Marks after values point to notes of the source that are not given here.
Columns and labels:
[1] = system: NaCl treated diabetic rats modeled with heart failure; assay: Chronic heart failure, first batch, ultrasonic cardiogram evaluation; assay type: in vivo, rat; settings: valsartan 10 mg/kg, compound A 18 mg/kg ig
Description: The pharmacodynamic evaluation was conducted by using a noninvasive ultrasonic cardiogram method.
Evaluation indexes: (1) morphology indexes: left ventricular posterior wall dimensions (LVPWd), left ventricular diastasis internal diameter (LVDd), end systolic diameter (LVDs); (2) functional indexes: ejection fraction (EF), shortening fraction (FS), ventricular early blood flow filling rate (E), atrial filling rate (A) and ratio of E/A; Doppler tissue image; at cardiac apical four chamber view, the valve ring of anterior mitral valve was used as sampling point, peak early diastolic velocity (Ea peak), peak late diastolic velocity (Aa peak), and Ea/Aa ratio reflected the systolic and diastolic motion of the whole left ventricle.
SPSS statistic software was used to analyze and treat data, and all data were expressed in mean±standard deviation (Mean±SD).

[2] = system: long-term diabetic rats
[3] = system: diabetic-hypertension rats
Description: The experiment about influence of AGEs breaker on hypotensive effect of nifedipine was performed on a diabetic-hypertension rat model. […] During the experiment, the animals took food freely, and were not interfered with any hypoglycemic drugs or hypotensive drugs.
The compound A was dissolved in distilled water, ready for use. Rats were randomly grouped as diabetic-hypertension control (DM-HTN) group and A (18 mg/kg) group. The drug was introgastrically administered once per day, and an equal amount of distilled water was administered in the diabetic-hypertension control group, for consecutive 4 weeks. After the end of experiment, blood samples were taken, thoracic aorta, liver, kidney were stored at −70° C. for standby use, and used for assays for tissue biochemical indicators and gene expression. Another part of kidney was fixed with 4% paraformaldehyde and used for pathological staining.
Nifedipine powder was formulated with DMSO to form a 5 mg/ml solution, then diluted with 15% ethanol-10% DMSO-25% PEG400 to form a 500 μg/ml solution, and diluted again to form 125 μg/ml, 62.5 μg/ml, 31.25 μg/ml, 15.62 μg/ml, 7.8 μg/ml solutions.
Rats were anesthetized with urethane-chloralose mixture by i.p., subjected to heparin anticoagulation, right common carotid artery cannula, communicated with
Biopac physiological recorder via pressure transducers. Through a right femoral vein remaining needle, nifedipine solutions were injected slowly by 5 batches in an order of concentrations from low to high, and arterial systolic pressure, diastolic pressure, pulse pressure and heart rate change were recorded continuously.

[4] = system: diabetic rats; settings: for CO / Cl / Diastolic pressure / Heart rate / SAC / Systolic pressure / TPR / TPR index / Organ parameters: Heart / Organ parameters: Heart ventricle / Organ parameters: Left kidney / Organ parameters: Left ventricle / Organ parameters: Right kidney: diabetic rats; for CO / Cl / Diastolic pressure / Heart rate / SAC / Systolic pressure / TPR / TPR index: 4 weeks; for Organ parameters: Heart / Organ parameters: Heart ventricle / Organ parameters: Left kidney / Organ parameters: Left ventricle / Organ parameters: Right kidney: dose not given
Description: Rats were anesthetized with pentobarbital sodium injection (0.8%, 50 mg/kg), subjected to tracheal cannula, heparin anticoagulation, right common carotid artery cannula, communicated with Biopac physiological recorder via is pressure transducers to record blood pressure; subjected to thoracotomy at middle of sternum, separation of ascending aorta which was covered with pulse Doppler probe, and the pulse Doppler rheometer was linked to the Biopac physiological recorder for real-time recording and calculating hemodynamic parameters by the software of Biopac (Acknowledge, Version 3): systolic blood pressure (SBP), diastolic blood pressure (DBP), heart rate (HR), cardiac output
(CO), cardiac index (CI), total peripheral resistance (TPR), total peripheral resistance index (TPR Index), stroke volume (SV) and system arterial compliance (SAC), etc. After 10 min of postoperative stabilization, these parameters were recorded continuously, and mean values for 30 s were used as the measured values of these parameters.
Formula for calculating some of hemodynamic parameters: TPR=mean arterial pressure (MAP)/CO SAC=SV/(SBP−DBP)

[5] = diabetic-hypertension rats, A 18 mg/kg intragastric once per day, 4 weeks

Cc1csc[n+]1CC(=O)O.[Na+] [A, 3-carboxymethyl-4-methyl-thiazolium bromide sodium]
E/A ratio ([1]; 10th week of administration (30th week of modeling), model control 2.5±0.31): 1.32±0.31 | Ea/Aa ratio vs model ([1]; 10th week of administration): increased significantly | LVDd and LVDs vs model ([1]; 10th week of administration): slight decrease | PWd vs model ([1]; 10th week of administration): slight increase | E/A ratio ([1]; 16th week of administration (36th week of modeling), model control 2.5±0.52): 1.45±0.18 | AGEs fluorescence content in aorta, left ventricular cardiac muscle and kidney [2]: significantly decreasing | DBP [3, 5]: 144.2 ± 11.1 mmHg | HR [3, 5]: 408.7 ± 35.7 beat/min | MBP [3, 5]: 153.5 ± 13.7 mmHg | PP [3, 5]: 22.9 ± 3.8 mmHg | SBP [3, 5]: 166.6 ± 12.4 mmHg | change in heart rate and blood pressure ([3]; diabetic-hypertension rats, compound A for 4 weeks): no significant change | hypotensive extent of nifedipine ([3]; fourth dosage of nifedipine (62.5 μg/ml) i.v., after 4 weeks of A 18 mg/kg, model group 18.92±10.54): 29.99±9.06 mmHg | hypotensive effect of nifedipine vs diabetic-hypertension model group ([3]; from second dosage of nifedipine (15.62 μg/ml), after 4 weeks of A 18 mg/kg): increased hypotensive effect | hypotensive extent of nifedipine ([3]; third dosage of nifedipine (31.25 μg/ml) i.v., after 4 weeks of A 18 mg/kg, model group 9.35±6.46): 19.49±13.29 mmHg | melting point: 182 °C | CO ([4]; 9 mg/kg i.g.): 84.9 ± 13.6 mL/min | Cl ([4]; 9 mg/kg i.g.): 0.194 ± 0.031 ml/min per cm^2 | Diastolic pressure ([4]; 9 mg/kg i.g.): 68.8 ± 14.0 mmHg | Heart rate ([4]; 9 mg/kg i.g.): 265.2 ± 25.8^ beats/min | SAC ([4]; 9 mg/kg i.g.): 9.05 ± 1.44** 10^−3 ml/mmHg | Systolic pressure ([4]; 9 mg/kg i.g.): 105.3 ± 12.0 mmHg | TPR ([4]; 9 mg/kg i.g.): 78.6 ± 19.7** 10^3 · dyne · sec/cm^5 | TPR index ([4]; 9 mg/kg i.g.): 181.6 ± 51.3 dyne · sec/cm^3 | CO ([4]; 18 mg/kg i.g.): 79.2 ± 10.6 mL/min | Cl ([4]; 18 mg/kg i.g.): 0.179 ± 0.026 ml/min per cm^2 | Diastolic pressure ([4]; 18 mg/kg i.g.): 72.8 ± 17.2 mmHg | Heart rate ([4]; 18 mg/kg i.g.): 282.2 ± 31.9^ beats/min | SAC ([4]; 18 mg/kg i.g.): 8.02 ± 1.27** 10^−3 ml/mmHg | Systolic pressure ([4]; 18 mg/kg i.g.): 108.7 ± 14.7 mmHg | TPR ([4]; 18 mg/kg i.g.): 87.4 ± 22.3* 10^3 · dyne · sec/cm^5 | TPR index ([4]; 18 mg/kg i.g.): 198.2 ± 56.2 dyne · sec/cm^3 | CO ([4]; 36 mg/kg i.g.): 77.7 ± 10.0 mL/min | Cl ([4]; 36 mg/kg i.g.): 0.179 ± 0.024 ml/min per cm^2 | Diastolic pressure ([4]; 36 mg/kg i.g.): 60.7 ± 16.1 mmHg | Heart rate ([4]; 36 mg/kg i.g.): 261.0 ± 32.3^ beats/min | SAC ([4]; 36 mg/kg i.g.): 7.92 ± 1.11* 10^−3 ml/mmHg | Systolic pressure ([4]; 36 mg/kg i.g.): 99.2 ± 13.2 mmHg | TPR ([4]; 36 mg/kg i.g.): 77.0 ± 19.6** 10^3 · dyne · sec/cm^5 | TPR index ([4]; 36 mg/kg i.g.): 176.4 ± 44.6 dyne · sec/cm^3 | Organ parameters: Heart ([4]; first of three A lines): 3.42 g/g × 10^-3 | Organ parameters: Heart ventricle ([4]; first of three A lines): 2.99 g/g × 10^-3 | Organ parameters: Left kidney ([4]; first of three A lines): 5.20 g/g × 10^-3 | Organ parameters: Left ventricle ([4]; first of three A lines): 2.29 g/g × 10^-3 | Organ parameters: Right kidney ([4]; first of three A lines): 5.33 g/g × 10^-3 | Organ parameters: Heart ([4]; second of three A lines): 3.44 g/g × 10^-3 | Organ parameters: Heart ventricle ([4]; second of three A lines): 3.01 g/g × 10^-3 | Organ parameters: Left kidney ([4]; second of three A lines): 5.16 g/g × 10^-3 | Organ parameters: Left ventricle ([4]; second of three A lines): 2.34 g/g × 10^-3 | Organ parameters: Right kidney ([4]; second of three A lines): 5.22 g/g × 10^-3 | Organ parameters: Heart ([4]; third of three A lines): 3.44 g/g × 10^-3 | Organ parameters: Heart ventricle ([4]; third of three A lines): 3.03 g/g × 10^-3 | Organ parameters: Left kidney ([4]; third of three A lines): 5.07 g/g × 10^-3 | Organ parameters: Left ventricle ([4]; third of three A lines): 2.32 g/g × 10^-3 | Organ parameters: Right kidney ([4]; third of three A lines): 5.19 g/g × 10^-3 | effect on angiosclerosis ([4]; long-term diabetic rats, 4 weeks of administration): improving angiosclerosis

Reference: patent US8338616B2, “Thiazoliums and their use for treating protein aging associated diseases” (Beijing Molecule Science And Technology Co., Ltd., priority 2008, dated 2012)
